Tests used:
Type in all cases: physicochemical
[1] = Stability test of ED-71: HPLC quantitative assay (survivability)
Method: (§1) Amorphous and crystalline ED-71 compounds were tested for stability at 10, 25 and […]. To estimate the stability, HPLC quantitative assay and absorbance and purity measurements were utilized. The purity was expressed as peak area ratio in percentage in HPLC (% P.A.R.). The test was carried out by using the following procedures:
(§2) About 2 mg portions of each of the amorphous and crystalline samples are precisely weighed into transparent 10 ml test tubes each having screw cap, individually.
(§3) The test tubes are purged with argon using a vacuum desiccator and a glove box. This purging procedure is not applied to the test tubes indicated as “1 M (air)” in the tables below.
(§4) The test tubes in groups are fixed in thermostatic baths which are respectively controlled at the above temperatures and allowed to stand in the dark. After one (1 W) or two (2 W) weeks or one month (1 M), the test tubes are removed from the baths and subjected to the following assay and measurements:
5 ml of absolute ethanol is precisely added to the test tube to form a sample solution. 1 ml of the sample solution and 1 ml of an internal standard solution are both precisely added to another test tube and the resulting mixture is diluted with methylene chloride to give a whole volume of 20 ml. This diluted solution is designated solution 1. The internal standard solution is formed by dissolving 2-aminopyrimidine in methanol to a concentration of 0.6 mg/ml.
Next, both of 1 ml of another standard solution for quantitative assay which is formed by dissolving crystalline ED-71 in absolute ethanol to a concentration of 0.4 mg/ml and 1 ml of the internal standard solution are precisely added to another test tube and the resulting mixture is diluted with methylene chloride to give a whole volume of 20 ml. This diluted solution is designated solution 2.
HPLC is carried out using 20 μl of each of solutions 1 and 2. For each solution, an area ratio of the peak of ED-71 to the peak of the internal standard substance is determined from the HPLC data. The ED-71 content in the sample is determined from the ratio of the area ratio for solution 1 to that for solution 2.
Survivability (%) is determined by dividing the ED-71 content thus obtained by ED-71 content in the same sample but prior to the above treatment. • HPLC conditions used: • Column: YMC A-004SIL (4.6×300 mm) • Mobile phase: methylene chloride/methanol mixture (95/5) • Flow rate: 1 ml/min • Detection: at UV 265 nm. (3) Absorbance Measurement

[2] = Stability test of ED-71: purity measurement using normal phase HPLC; details: 265 nm
Method: as §1, §2, §3, §4
1 ml of the sample solution as prepared in “HPLC quantitative assay” above is dried in vacuo to remove the solvent (absolute ethanol). The residue is dissolved in 1 ml of methylene chloride. HPLC assay is carried out using 25 μl of this solution. • HPLC conditions used: • Column: YMC A-004SIL (4.6×300 mm) • Mobile phase: methylene chloride/methanol mixture (96/4) • Flow rate: 1.8 ml/min • Detection: at UV 265 nm.

[3] = Stability test of ED-71: purity measurement using reverse phase HPLC; details: 220 nm, 10° C.
Method: as §1, §2, §3, §4
HPLC is carried out using 25 μl of the sample solution as prepared in “HPLC quantitative assay” above. • HPLC conditions used: • Column: Inertsil ODS-2 (5×250 mm) • Mobile phase: acetonitrile/water mixture (55/45) • Flow rate: 1 ml/min • Detection: at UV 265 and 220 nm.

For `C=C1/C(=C\C=C2/CCC[C@]3(C)[C@@H]([C@H](C)CCCC(C)(C)O)CC[C@@H]23)C[C@@H](O)[C@@H](OCCCO)[C@@H]1O` [Crys., 1α,25-dihydroxy-2β-(3-hydroxypropoxy)vitamin D3], the “HPLC Quantitative Assay (% Survivability)” value ([1]; 10° C., 1 M (air), dark) was 95.0%, the “HPLC Quantitative Assay (% Survivability)” value ([1]; 10° C., 1 M, argon, dark) was 97.0% and the “HPLC Quantitative Assay (% Survivability)” value ([1]; 10° C., 2 W, argon, dark) was 96.8%. The “HPLC Quantitative Assay (% Survivability)” value ([1]; 10° C., time 0) was 100%, the “HPLC Quantitative Assay (% Survivability)” value ([1]; 25° C., 1 W, argon, dark) was 99.4% and the “HPLC Quantitative Assay (% Survivability)” value ([1]; 25° C., 2 W, argon, dark) was 98.8%. The “HPLC Quantitative Assay (% Survivability)” value ([1]; 25° C., time 0) was 100%, the “HPLC Quantitative Assay (% Survivability)” value ([1]; 40° C., 1 W, argon, dark) was 99.5% and the “HPLC Quantitative Assay (% Survivability)” value ([1]; 40° C., 2 W, argon, dark) was 102.9%. The “HPLC Quantitative Assay (% Survivability)” value ([1]; 40° C., time 0) was 100%, the “Purity Measurement Using Normal Phase HPLC, ED-71 peak” value ([2]; 10° C., 1 M (air), dark) was 98.88 % P.A.R and the “Purity Measurement Using Normal Phase HPLC, Other peaks” value ([2]; 10° C., 1 M (air), dark) was 0.46 % P.A.R. For the same compound, the “Purity Measurement Using Normal Phase HPLC, Pre Form peak” value ([2]; 10° C., 1 M (air), dark) was 0.66 % P.A.R, the “Purity Measurement Using Normal Phase HPLC, ED-71 peak” value ([2]; 10° C., 1 M, argon, dark) was 98.91 % P.A.R and the “Purity Measurement Using Normal Phase HPLC, Other peaks” value ([2]; 10° C., 1 M, argon, dark) was 0.44 % P.A.R. The “Purity Measurement Using Normal Phase HPLC, Pre Form peak” value ([2]; 10° C., 1 M, argon, dark) was 0.65 % P.A.R, the “Purity Measurement Using Normal Phase HPLC, ED-71 peak” value ([2]; 10° C., 2 W, argon, dark) was 99.06 % P.A.R and the “Purity Measurement Using Normal Phase HPLC, Other peaks” value ([2]; 10° C., 2 W, argon, dark) was 0.27 % P.A.R. The “Purity Measurement Using Normal Phase HPLC, Pre Form peak” value ([2]; 10° C., 2 W, argon, dark) was 0.66 % P.A.R, the “Purity Measurement Using Normal Phase HPLC, ED-71 peak” value ([2]; 10° C., time 0) was 99.15 % P.A.R and the “Purity Measurement Using Normal Phase HPLC, Other peaks” value ([2]; 10° C., time 0) was 0.63 % P.A.R. For the same compound, the “Purity Measurement Using Normal Phase HPLC, Pre Form peak” value ([2]; 10° C., time 0) was 0.21 % P.A.R, the “Purity Measurement Using Normal Phase HPLC, ED-71 peak” value ([2]; 25° C., 1 W, argon, dark) was 99.56 % P.A.R and the “Purity Measurement Using Normal Phase HPLC, Other peaks” value ([2]; 25° C., 1 W, argon, dark) was 0.30 % P.A.R. For the same compound, the “Purity Measurement Using Normal Phase HPLC, Pre Form peak” value ([2]; 25° C., 1 W, argon, dark) was 0.14 % P.A.R, the “Purity Measurement Using Normal Phase HPLC, ED-71 peak” value ([2]; 25° C., 2 W, argon, dark) was 98.95 % P.A.R and the “Purity Measurement Using Normal Phase HPLC, Other peaks” value ([2]; 25° C., 2 W, argon, dark) was 0.38 % P.A.R. For the same compound, the “Purity Measurement Using Normal Phase HPLC, Pre Form peak” value ([2]; 25° C., 2 W, argon, dark) was 0.67 % P.A.R, the “Purity Measurement Using Normal Phase HPLC, ED-71 peak” value ([2]; 25° C., time 0) was 99.15 % P.A.R and the “Purity Measurement Using Normal Phase HPLC, Other peaks” value ([2]; 25° C., time 0) was 0.63 % P.A.R. For the same compound, the “Purity Measurement Using Normal Phase HPLC, Pre Form peak” value ([2]; 25° C., time 0) was 0.21 % P.A.R, the “Purity Measurement Using Normal Phase HPLC, ED-71 peak” value ([2]; 40° C., 1 W, argon, dark) was 99.55 % P.A.R and the “Purity Measurement Using Normal Phase HPLC, Other peaks” value ([2]; 40° C., 1 W, argon, dark) was 0.31 % P.A.R. The “Purity Measurement Using Normal Phase HPLC, Pre Form peak” value ([2]; 40° C., 1 W, argon, dark) was 0.14 % P.A.R, the “Purity Measurement Using Normal Phase HPLC, ED-71 peak” value ([2]; 40° C., 2 W, argon, dark) was 98.92 % P.A.R and the “Purity Measurement Using Normal Phase HPLC, Other peaks” value ([2]; 40° C., 2 W, argon, dark) was 0.41 % P.A.R. For the same compound, the “Purity Measurement Using Normal Phase HPLC, Pre Form peak” value ([2]; 40° C., 2 W, argon, dark) was 0.67 % P.A.R, the “Purity Measurement Using Normal Phase HPLC, ED-71 peak” value ([2]; 40° C., time 0) was 99.15 % P.A.R and the “Purity Measurement Using Normal Phase HPLC, Other peaks” value ([2]; 40° C., time 0) was 0.63 % P.A.R. The “Purity Measurement Using Normal Phase HPLC, Pre Form peak” value ([2]; 40° C., time 0) was 0.21 % P.A.R, the “220 nm (%), ED-71 peak” value ([3]; 1 M (air), dark) was 97.09% and the “220 nm (%), Other peaks” value ([3]; 1 M (air), dark) was 1.82%. The “220 nm (%), Pre Form peak” value ([3]; 1 M (air), dark) was 1.09%, the “220 nm (%), ED-71 peak” value ([3]; 1 M, argon, dark) was 97.44% and the “220 nm (%), Other peaks” value ([3]; 1 M, argon, dark) was 1.51%. The “220 nm (%), Pre Form peak” value ([3]; 1 M, argon, dark) was 1.05%, the “220 nm (%), ED-71 peak” value ([3]; 2 W, argon, dark) was 97.91% and the “220 nm (%), Other peaks” value ([3]; 2 W, argon, dark) was 1.09%. For the same compound, the “220 nm (%), Pre Form peak” value ([3]; 2 W, argon, dark) was 1.01% and the “220 nm (%), ED-71 peak” value ([3]; time 0) was 97.44%.
